Reference: patent publication US11607424B2, “Carbon-rich micro-particles for protecting bees and overcoming colony collapse disorder” (WASHINGTON STATE UNIVERSITY, priority 2018, dated 2023)

Test system: honey bees
Assay: Detoxification effects: caged adult bees chronically exposed orally to 50 ppb Thiamethoxam with or without CMPs
Type: in vivo
Details: 50 ppb TXM, absence of CMPs
Procedure: A total of 70 plastic cages (15 cm×8 cm×10 cm) with a removable cover were used FIGS. 4A and B). Adult honey bees were collected from broods of at least seven colonies and homogenously distributed in all control and experimental cages to eliminate possible colony-level effects on the results. Cages were loaded with 100 bees per cage and then incubated in complete darkness at 30° C. and 70% relative humidity (RH). Bees were fed a sugar solution (50% w/v). The CMPs were administered at a concentration of 1% w/v in the sugar solution and delivered to experimental cages on day 2. Stock solutions of Thiamethoxam (TXM) (3-[(2-Chloro-1,3-thiazol-5-yl)methyl]-5-methyl-N-nitro-1,3,5-oxadiazinan-4-imine) were prepared from analytical grade TMX (Sigma Aldrich 37924-100MG-R) at concentration of 30 mg/L in E-pure water, and maintained at 4° C. The pesticide was administered at a concentration of 50 ppb on day 2. […]
Treatments were arranged in a completely randomized design. […] The mortality rates and feed consumption were recorded daily. Production and morphology of bee feces (frass) were assessed to ensure that CMPs passed through the bees digestive system with no harm. Bee behavior and activity (i.e. number of falls per 30 seconds, inability to climb, etc.) were also assessed. Dispensability of the CMPs in the sugar solutions were also assessed during the experiments. […]

SMILES: CN1COCN(Cc2cnc(Cl)s2)C1=N[N+](=O)[O-] [TXM, 3-[(2-Chloro-1,3-thiazol-5-yl)methyl]-5-methyl-N-nitro-1,3,5-oxadiazinan-4-imine]
- bee deaths (daily die-off) on day 2: 2.5%
- bee deaths (daily die-off) on day 5: 21%
